According to US6784137B2, “6-aryl-4-aminopicolinates and their use as herbicides” (Dow AgroSciences LLC, priority 2001, dated 2004):

Legend:
[1] = system: Barnyardgrass (Echinochloa crus-galli); assay: Postemergence herbicidal activity, greenhouse spray; assay type: in vivo; conditions: Echinochloa crus-galli, post-emergence, 336 h, visual score after 2 weeks, read-out: Post-emergent % control ECHCG; for pest or weed control at 250 ppm / pest or weed control at 500 ppm: Table 1; for pest or weed control at 250 ppm: rate 250 ppm; for pest or weed control at 500 ppm: rate 500 ppm
Summary of the method: (§1)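 Test compounds, dissolved in 97:3 acetone/DMSO and serially diluted in an aqueous surfactant and crop oil mixture, were applied postemergence to young plants at the one- to two-true-leaf stage, with carrier-only sprays as controls.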

[2] = system: Cocklebur (Xanthium strumarium); assay: as above; assay type: in vivo; conditions: Xanthium strumarium, post-emergence, 336 h, visual score after 2 weeks, read-out: Post-emergent % control XANST; for pest or weed control at 250 ppm / pest or weed control at 500 ppm: Table 1; for pest or weed control at 250 ppm: rate 250 ppm; for pest or weed control at 500 ppm: rate 500 ppm, 0 no injury, 100 complete kill
Summary of the method: as §1

[3] = system: Lambsquarter (Chenopodium album); assay: as above; assay type: in vivo; conditions: Chenopodium album, post-emergence, 336 h, visual score after 2 weeks, read-out: Post-emergent % control CHEAL; for pest or weed control at 250 ppm / pest or weed control at 500 ppm: Table 1; for pest or weed control at 250 ppm: rate 250 ppm; for pest or weed control at 500 ppm: rate 500 ppm
Summary of the method: as §1

[4] = system: Pigweed (redroot) (Amaranthus retroflexus); assay: as above; assay type: in vivo; conditions: Amaranthus retroflexus, post-emergence, 336 h; Table 3; rate 62.5 (unit inferred); visual score after 2 weeks; read-out: Post-emergent % control AMARE
Summary of the method: as §1

[5] = system: Yellow nutsedge (Cyperus esculentus); assay: as above; assay type: in vivo; conditions: Cyperus, post-emergence, 336 h, visual score after 2 weeks, read-out: Post-emergent % control CYPES; for pest or weed control at 250 ppm / pest or weed control at 500 ppm: Table 1; for pest or weed control at 250 ppm: rate 250 ppm; for pest or weed control at 500 ppm: rate 500 ppm
Summary of the method: as §1

[6] = system: Wheat(var. Merica) (Triticum aestivum); assay: Postemergence herbicidal activity, selectivity to wheat; assay type: in vivo; conditions: post-emergence, 336 h, Table 3, rate 62.5 (unit inferred), crop injury, read-out: Post-emergent % control TRZAS
Method: Seeds of the desired test plant species were planted in Grace-Sierra MetroMix® 306 planting mixture, which typically has a pH of 6.0 to 6.8 and an organic matter content of about 30 percent, in plastic pots with a surface area of 64 square centimeters. When required to ensure good germination and healthy plants, a fungicide treatment and/or other chemical or physical treatment was applied. The plants were grown for 7-21 days in a greenhouse with an approximate 15 hr photoperiod which was maintained at about 23-29° C. during the day and 22-28° C. during the night. Nutrients and water were added on a regular basis and supplemental lighting was provided with overhead metal halide 1000-Watt lamps as necessary. The plants were employed for testing when they reached the first or second true leaf stage. A weighed amount, determined by the highest rate to be tested, of each test compound was placed in a 20 mL glass vial and was dissolved in 4 mL of a 97:3 v/v (volume/volume) mixture of acetone and dimethyl sulfoxide (DMSO) to obtain concentrated stock solutions. […] The concentrated stock solutions obtained were diluted with an aqueous mixture containing acetone, water, isopropyl alcohol, DMSO, At plus 411 F crop oil concentrate, and Triton X-155 surfactant in a 48.5:39:10:1.5:1.0:0.02 v/v ratio to obtain spray solutions of known concentration. The solutions containing the highest concentration to be tested were prepared by diluting 2 mL aliquots of the stock solution with 13 mL of the mixture and lower concentrations were prepared by serial dilution of the stock solution. Approximately 1.5 mL aliquots of each solution of known concentration were sprayed evenly onto each of the test plant pots using a DeVilbiss atomizer driven by compressed air pressure of […] (140 to 280 kiloPascals) to obtain thorough coverage of each plant. Control plants were sprayed in the same manner with the aqueous mixture. In this test an application rate of 1 ppm results in the application of approximately 1 g/Ha. The treated plants and control plants were placed in a greenhouse as described above and watered by sub-irrigation to prevent wash-off of the test compounds. After 2 weeks the condition of the test plants as compared with that of the untreated plants was determined visually and scored on a scale of 0 to 100 percent where 0 corresponds to no injury and 100 corresponds to complete kill.

[7] = system: Crabgrass(large) (Digitaria sanguinalis); assay: Preemergence herbicidal activity, soil spray; assay type: in vivo; conditions: Digitaria sanguinalis, pre-emergence, 504 h, Table 5, visual score after 3 weeks, read-out: Pre-emergent % control DIGSA; for pest or weed control at 560 ppm: rate 560 ppm; for pest or weed control at 140 ppm: rate 140 ppm
Summary of the method: (§2)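 Test species were planted first, then the soil of each pot was sprayed with compound solutions of known concentration made in water containing 0.1% Tween 155 from acetone–DMSO stocks. The growth matrix was a 70:30 loam and sand blend with pH near 8.1.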

[8] = system: Giant Foxtail (Setaria faberi); assay: Preemergence herbicidal activity, soil spray; assay type: in vivo; conditions: Setaria faberi, pre-emergence, 504 h, Table 5, visual score after 3 weeks, read-out: Pre-emergent % control SETFA; for pest or weed control at 560 ppm: rate 560 ppm; for pest or weed control at 140 ppm: rate 140 ppm
Summary of the method: as §2

[9] = system: Lambsquarter (Chenopodium album); assay: Preemergence herbicidal activity, soil spray; assay type: in vivo; conditions: Chenopodium album, pre-emergence, 504 h, Table 5, visual score after 3 weeks, read-out: Pre-emergent % control CHEAL; for pest or weed control at 560 ppm: rate 560 ppm, 100 complete kill or no germination; for pest or weed control at 140 ppm: rate 140 ppm
Summary of the method: as §2

[10] = system: Pigweed (redroot) (Amaranthus retroflexus); assay: Preemergence herbicidal activity, soil spray; assay type: in vivo; conditions: Amaranthus retroflexus, pre-emergence, 504 h, Table 5, visual score after 3 weeks, read-out: Pre-emergent % control AMARE; for pest or weed control at 560 ppm: rate 560 ppm; for pest or weed control at 140 ppm: rate 140 ppm
Summary of the method: as §2

Compound | melting point [°C] | pest or weed control at 250 ppm [1] [%] | pest or weed control at 250 ppm [2] [%] | pest or weed control at 250 ppm [3] [%] | pest or weed control at 62.5 µg/mL [4] [%] | pest or weed control at 250 ppm [5] [%] | pest or weed control at 62.5 µg/mL [6] [%] | pest or weed control at 560 ppm [7] [%] | pest or weed control at 560 ppm [8] [%] | pest or weed control at 560 ppm [9] [%] | pest or weed control at 560 ppm [10] [%] | pest or weed control at 500 ppm [1] [%] | pest or weed control at 500 ppm [2] [%] | pest or weed control at 500 ppm [3] [%] | pest or weed control at 500 ppm [5] [%] | pest or weed control at 140 ppm [7] [%] | pest or weed control at 140 ppm [8] [%] | pest or weed control at 140 ppm [9] [%] | pest or weed control at 140 ppm [10] [%] | other results
COC(=O)c1nc(-c2ccc(C)cc2)cc(N)c1Cl [Compound 20, Methyl 4-amino-3-chloro-6-(4-methylphenyl)pyridine-2-carboxylate] | 111 to 113 | 70 | 100 | 100 | 100 | 50 | 10 | 100 | 100 | 100 | 100 |  |  |  |  |  |  |  |  | 
COC(=O)c1nc(-c2ccc(Cl)cc2F)cc(NC(C)=O)c1Cl [Compound 52, Methyl 4-acetamido-3-chloro-6-(4-chloro-2-fluorophenyl)pyridine-2-carboxylate] | 134 to 135 |  |  |  | 70 |  | 10 |  |  |  |  | 90 | 100 | 100 | 40 | 100 | 95 | 100 | 100 | 
Cc1ccc(-c2cc(N)c(Cl)c(C(=O)O)n2)cc1C [Compound 132, 4-amino-3-chloro-6-(3,4-dimethylphenyl)pyridine-2-carboxylic acid] | 192 to 194 |  |  |  | 70 |  | 0 |  |  |  |  | 80 | 100 | 90 | 0 | 100 | 95 | 100 | 90 | 
Cc1ccc(-c2cc(N)c(Cl)c(C(=O)O)n2)cc1 [Compound 136, 4-Amino-3-chloro-6-(4-methylphenyl)pyridine-2-carboxylic acid] | 166 to 167 | 70 | 100 | 100 | 100 | 80 | 0 | 100 | 100 | 100 | 100 |  |  |  |  |  |  |  |  | pest or weed control at 125 ppm ([1]; Table 2, rate 125 ppm): 70%; pest or weed control at 125 ppm ([2]; Table 2, rate 125 ppm): 100%; pest or weed control at 125 ppm ([3]; Table 2, rate 125 ppm): 100%; pest or weed control at 125 ppm ([5]; Table 2, rate 125 ppm): 70%

Second part, led by results:

melting point [°C] | Compound | pest or weed control at 250 ppm [1] [%] | pest or weed control at 250 ppm [2] [%] | pest or weed control at 250 ppm [3] [%] | pest or weed control at 62.5 µg/mL [4] [%] | pest or weed control at 250 ppm [5] [%] | pest or weed control at 62.5 µg/mL [6] [%] | pest or weed control at 560 ppm [7] [%] | pest or weed control at 560 ppm [8] [%] | pest or weed control at 560 ppm [9] [%] | pest or weed control at 560 ppm [10] [%] | pest or weed control at 500 ppm [1] [%] | pest or weed control at 500 ppm [2] [%] | pest or weed control at 500 ppm [3] [%] | pest or weed control at 500 ppm [5] [%] | pest or weed control at 140 ppm [7] [%] | pest or weed control at 140 ppm [8] [%] | pest or weed control at 140 ppm [9] [%] | pest or weed control at 140 ppm [10] [%] | other results
184 | COC(=O)c1nc(-c2ccc3c(c2)OCO3)cc(N)c1Cl [Compound 29, Methyl 4-amino-3-chloro-6-(3,4-methylenedioxyphenyl)pyridine-2-carboxylate] |  |  |  | 90 |  | 10 | 100 | 90 | 100 | 95 | 95 | 100 | 100 | 80 |  |  |  |  | 
182 | Nc1cc(-c2ccc3c(c2)OCO3)nc(C(=O)O)c1Cl [Compound 153, 4-Amino-3-chloro-6-(3,4-methylenedioxyphenyl)pyridine-2-carboxylic acid] |  |  |  | 100 |  | 10 | 100 | 100 | 100 | 100 | 95 | 100 | 98 | 70 |  |  |  |  | 
